From PMC6017909, “Synthesis and Evaluation of the Tumor Cell Growth Inhibitory Potential of New Putative HSP90 Inhibitors” (Molecules : A Journal of Synthetic Chemistry and Natural …, 2018)

Legend:
A431 = assay: Cell-counting assay, 72-h drug exposure; format: cell-based; conditions: Homo sapiens, A-431, read-out: Cell Growth Inhibitory Activity A431 IC50 72 h
Description: (§1) For the cytotoxic activity studies and determination of GI50 concentrations in three different tumor cell lines, the cell culture conditions are described in Section 3.5. For the studies on the effect on % viable cells, cell cycle, cellular proliferation, and apoptosis, culture conditions are described in Section 3.6.1. For the remaining studies, the epithelial carcinoma cell line A431 and the non-small cell lung carcinoma cell line NCI-H460 were routinely grown in RPMI 1640 (Lonza, Vierviers, Belgium), supplemented with 10% (v/v) heat-inactivated fetal bovine serum (FBS, GIBCO, Invitrogen, Paisley, UK). The human peritoneal mesothelioma cell line STO was kindly provided by Dr. N. Zaffaroni (IRCCS Istituto Nazionale Tumori, Milan, Italy) and grown in 50/50 DMEM-Ham’s F12 medium (Lonza, Vierviers, Belgium), supplemented with 10% (v/v) heat-inactivated foetal bovine serum and 2 mM L-glutamine (L-Gln). All cell lines were maintained at 37 °C in a 5%/95% CO2/air atmosphere. All the compounds tested were freshly prepared by dissolving powder in dimethylsulfoxide (DMSO) (BDH Prolabo, Milan, Italy) and following dilution in culture medium. Cells were incubated with drugs for 48 h or 72 h (unless otherwise stated) at 37 °C in culture medium supplemented with 10% (v/v) heat-inactivated FBS; drug concentrations used for each assay and duration of treatments are reported in Legends to Figures.
(§2) Cellular sensitivity to drugs was evaluated by a cell-counting assay after 72-h drug exposure. Cells in the logarithmic phase of growth were seeded in duplicate into 6-well plates. Twenty-four hours after seeding, the drug was added to the medium. Cells were harvested 72 h after drug exposure and counted with a cell counter.

NCI-H460 = assay: Cell-counting assay, 72-h drug exposure; format: cell-based; conditions: Homo sapiens, read-out: Cell Growth Inhibitory Activity NCI-H460 IC50 72 h
Description: as §1, §2

STO = assay: Cell-counting assay, 72-h drug exposure; format: cell-based; conditions: Homo sapiens, read-out: Cell Growth Inhibitory Activity STO IC50 72 h
Description: as §1, §2

HSP90 = molecular target: T1, HSP90 (Homo sapiens, UniProt P07900); assay: HSP90 binding, fluorescence polarization with GM-FITC; conditions: displacement of GM-FITC 5 nM, 30 nM HSP90, 4 °C, 4 h; read-out: Binding HSP90 (FP) IC50
T1 construct: purchased Stressgen SPP-776
Procedure: GM-FITC Geldanamycin-fluorescein-5-isothiocyanate (working concentration: 1–400 nM), supplied by Invivogen (06C23-MT, San Diego, CA, USA), was previously dissolved in DMSO to obtain 10 mM stock solutions and kept at −20 °C until use. […] The compounds were previously dissolved in DMSO to obtain stock solutions and kept at −20 °C. The day of experiment, the compounds were prepared by serial dilutions in assay buffer (HFB) containing 20 mM HEPES (K) pH 7.3, 50 mM KCl, 5 mM MgCl2, 20 mM Na2MoO4 and 0.01% NP40. Before each use, 0.1 mg/mL Bovine Gamma globulin and 2 mM DTT were freshly added. […] The plate was mixed on a shaker at 4 °C for 4 h, and the FP values in mP (millipolarization units) were recorded. […] Curve fitting was performed using Prism GraphPad software program (GraphPad software, Inc., San Diego, CA, USA).

Structure (SMILES)	IC50 (A431) [nM]	IC50 (NCI-H460) [µM]	IC50 (HSP90) [µM]	IC50 (STO) [µM]
O=C1c2ccccc2C(=O)c2c[n+](Cc3ccccc3)ccc21 [Compound 2a, 2-Benzyl-5,10-dioxo-5,10-dihydro-benzo[g]isoquinolinium bromide]	200 ± 10	0.7 ± 0.01		
O=C1c2ccccc2C(=O)c2c[n+](Cc3ccc(F)cc3F)ccc21 [Compound 2b, 2-(2,4-Difluoro-benzyl)-5,10-dioxo-5,10-dihydro-benzo[g]isoquinolinium bromide]	3100 ± 500	3.2 ± 0.5		
CC(C)(C)c1ccc(C[n+]2ccc3c(c2)C(=O)c2ccccc2C3=O)cc1 [Compound 2c, 2-(4-tert-Butyl-benzyl)-5,10-dioxo-5,10-dihydro-benzo[g]isoquinolinium bromide]	460 ± 800			
O=c1c2ccccc2oc2cnccc12 [Compound 4, 5H-chromeno[2,3-c]pyridin-5-one]	> 50000	> 50	> 100	> 50
O=c1c2ccccc2sc2cnccc12 [Compound 7]	46900	> 50	2.47 ± 0.09	46.9

The next lines start with results.

IC50 (A431) [nM]	IC50 (NCI-H460) [µM]	IC50 (HSP90) [µM]	Structure (SMILES)	IC50 (STO) [µM]
> 50000	> 50	> 100	O=c1c2ccccc2oc2c1ccc[n+]2Cc1ccccc1 [Compound 10, 1-Benzyl-10-oxo-10H-9-oxa-1-azonia-anthracene bromide]	> 50
69 ± 5	0.01 ± 0.002		C=CCNC1=C2C[C@@H](C)C[C@H](OC)[C@H](O)[C@@H](C)/C=C(\C)[C@H](OC(N)=O)[C@@H](OC)/C=C\C=C(/C)C(=O)NC(=CC1=O)C2=O [Compound 17-AAG, 17-N-allylamino-17-demethoxygeldanamycin, reference compound]	
